Data: PMC8335354 (Biology of Reproduction, 2021)
Entries after “also recorded” stand apart in the source; their conditions may differ.

Legend:
[1] = system: parthenogenetic embryos (zygotic gene activation); experiment: Transcriptional activity; assay type: cell-based, mouse; settings: 2 mM EU from 5 h to 24 h after activation
[2] = system: pups derived from HDAC inhibitor-treated SCNT-derived embryos; experiment: Body and placental weights of cloned pups at term; assay type: in vivo, mouse; settings: 19.5 dpc, mean ± SD
[3] = system: mouse SCNT-derived embryos; experiment: In vitro development of SCNT-derived embryos treated with HDAC inhibitors; assay type: cell-based
[4] = system: mouse SCNT-derived embryos; experiment: In vivo development of SCNT-derived embryos, morula/blastocyst transfer; settings: 8 h treatment
[5] = system: mouse SCNT-derived embryos; experiment: In vivo development of SCNT-derived embryos, two-cell transfer; settings: for No. of implantations / No. of offspring / No. of placentas only / implantations (%) / offspring (%) / placentas only (%): 8 h treatment, two-cell transfer
[6] = system: mouse SCNT-derived embryos; settings: cited from earlier work
[7] = inhibitor treatment 8 h, Table 4

**Q.** For `O=C(CCCCC[C@@H]1NC(=O)[C@H]2CCCN2C(=O)[C@@H]2CCCCCCCCCC[C@@H](NC1=O)C(=O)N2)NO` [Ky-309], which “EU fluorescence intensity / effect on ZGA at the two-cell stage” value [1] is on record?
**A.** no adverse effects on ZGA

**Q.** And the “Body weight at term (g ± SD)” value [2]?
**A.** 1.61 ± 0.21 g

**Q.** What about the “Placental weight at term (g ± SD)” value [2] of the same molecule?
**A.** 0.31 ± 0.05 g

**Q.** And the “No. of two-cell embryos at 24 h” value ([3]; 0.5 nM, 8 h treatment, Table 2)?
**A.** 251

**Q.** What about the “two-cell embryos at 24 h (%)” value ([3]; 0.5 nM, 8 h treatment, Table 2) of the same molecule?
**A.** 87.2%

**Q.** And the “No. of two-cell embryos at 24 h” value ([3]; 1 nM, 8 h treatment, Table 2)?
**A.** 190

**Q.** And the “two-cell embryos at 24 h (%)” value ([3]; 1 nM, 8 h treatment, Table 2)?
**A.** 76.9%

**Q.** What about the “No. of four-cell embryos at 48 h” value ([3]; 5 nM, 8 h treatment, Table 1) of the same molecule?
**A.** 89

**Q.** What about the “No. of morula/blast at 72 h” value ([3]; 5 nM, 8 h treatment, Table 1) of the same molecule?
**A.** 61

**Q.** What about the “No. of two-cell embryos at 24 h” value ([3]; 5 nM, 8 h treatment, Table 1) of the same molecule?
**A.** 106

**Q.** And the “four-cell embryos at 48 h (% per 2 cells)” value ([3]; 5 nM, 8 h treatment, Table 1)?
**A.** 84.0%

**Q.** And the “morula/blast at 72 h (% per 2 cells)” value ([3]; 5 nM, 8 h treatment, Table 1)?
**A.** 57.5%

**Q.** What about the “two-cell embryos at 24 h (%)” value ([3]; 5 nM, 8 h treatment, Table 1) of the same molecule?
**A.** 93.8%

**Q.** And the “No. of two-cell embryos at 24 h” value ([3]; 5 nM, 8 h treatment, Table 2)?
**A.** 66

**Q.** And the “two-cell embryos at 24 h (%)” value ([3]; 5 nM, 8 h treatment, Table 2)?
**A.** 90.4%

**Q.** What about the “No. of four-cell embryos at 48 h” value ([3]; 100 nM, 8 h treatment, Table 1) of the same molecule?
**A.** 27

**Q.** What about the “No. of morula/blast at 72 h” value ([3]; 100 nM, 8 h treatment, Table 1) of the same molecule?
**A.** 6

**Q.** What about the “No. of two-cell embryos at 24 h” value ([3]; 100 nM, 8 h treatment, Table 1) of the same molecule?
**A.** 58

**Q.** What about the “four-cell embryos at 48 h (% per 2 cells)” value ([3]; 100 nM, 8 h treatment, Table 1) of the same molecule?
**A.** 46.6%

**Q.** And the “morula/blast at 72 h (% per 2 cells)” value ([3]; 100 nM, 8 h treatment, Table 1)?
**A.** 10.3%

**Q.** What about the “two-cell embryos at 24 h (%)” value ([3]; 100 nM, 8 h treatment, Table 1) of the same molecule?
**A.** 84.0%

**Q.** And the “developmental block / embryotoxicity in SCNT-derived embryos (in words)” value ([3]; treatment at the one-cell stage)?
**A.** embryonic toxicity; also recorded: moderate two-cell developmental block

**Q.** And the “No. of cloned offspring” value ([4]; 5 nM)?
**A.** 0 (0)

**Q.** And the No. of implantations ([4]; 5 nM)?
**A.** 4

**Q.** And the “No. of placentas only” value ([4]; 5 nM)?
**A.** 0 (0)

**Q.** What about the “cloned offspring (%)” value ([4]; 5 nM) of the same molecule?
**A.** 0 (0) %

**Q.** What about the “implantations (%)” value ([4]; 5 nM) of the same molecule?
**A.** 19.0%

**Q.** And the “placentas only (%)” value ([4]; 5 nM)?
**A.** 0 (0) %

**Q.** And the “No. of cloned offspring” value ([4]; 100 nM)?
**A.** 1

**Q.** What about the No. of implantations ([4]; 100 nM) of the same molecule?
**A.** 4

**Q.** And the “No. of placentas only” value ([4]; 100 nM)?
**A.** 1

**Q.** And the “cloned offspring (%)” value ([4]; 100 nM)?
**A.** 16.7%

**Q.** And the “implantations (%)” value ([4]; 100 nM)?
**A.** 66.7%

**Q.** And the “placentas only (%)” value ([4]; 100 nM)?
**A.** 16.7%

**Q.** And the No. of implantations ([5]; 0.5 nM)?
**A.** 32

**Q.** What about the No. of offspring ([5]; 0.5 nM) of the same molecule?
**A.** 1

**Q.** What about the “No. of placentas only” value ([5]; 0.5 nM) of the same molecule?
**A.** 0 (0)

**Q.** And the “implantations (%)” value ([5]; 0.5 nM)?
**A.** 38.1%

**Q.** And the “offspring (%)” value ([5]; 0.5 nM)?
**A.** 1.2%

**Q.** What about the “placentas only (%)” value ([5]; 0.5 nM) of the same molecule?
**A.** 0 (0) %

**Q.** And the No. of implantations ([5]; 1 nM)?
**A.** 21

**Q.** What about the No. of offspring ([5]; 1 nM) of the same molecule?
**A.** 0 (0)

**Q.** What about the “No. of placentas only” value ([5]; 1 nM) of the same molecule?
**A.** 0 (0)

**Q.** And the “implantations (%)” value ([5]; 1 nM)?
**A.** 30.9%

**Q.** What about the “offspring (%)” value ([5]; 1 nM) of the same molecule?
**A.** 0 (0) %

**Q.** What about the “placentas only (%)” value ([5]; 1 nM) of the same molecule?
**A.** 0 (0) %

**Q.** What about the No. of implantations ([5]; 5 nM) of the same molecule?
**A.** 33

**Q.** And the No. of offspring ([5]; 5 nM)?
**A.** 1

**Q.** What about the “No. of placentas only” value ([5]; 5 nM) of the same molecule?
**A.** 2

**Q.** And the “implantations (%)” value ([5]; 5 nM)?
**A.** 50.0%

**Q.** What about the “offspring (%)” value ([5]; 5 nM) of the same molecule?
**A.** 1.5%

**Q.** What about the “placentas only (%)” value ([5]; 5 nM) of the same molecule?
**A.** 3.0%

**Q.** For `CC(/C=C/C(=O)NO)=C\[C@@H](C)C(=O)c1ccc(N(C)C)cc1` [TSA, trichostatin A, reference compound], which “EU fluorescence intensity / effect on ZGA at the two-cell stage” value [1] is on record?
**A.** no adverse effects on ZGA

**Q.** What about the “Body weight at term (g ± SD)” value [2] of the same molecule?
**A.** 1.57 ± 0.15 g

**Q.** And the “Placental weight at term (g ± SD)” value [2]?
**A.** 0.28 ± 0.07 g

**Q.** What about the “No. of four-cell embryos at 48 h” value ([3]; 5 nM, 8 h treatment, Table 1) of the same molecule?
**A.** 45

**Q.** What about the “No. of morula/blast at 72 h” value ([3]; 5 nM, 8 h treatment, Table 1) of the same molecule?
**A.** 32

**Q.** What about the “No. of two-cell embryos at 24 h” value ([3]; 5 nM, 8 h treatment, Table 1) of the same molecule?
**A.** 49

**Q.** And the “four-cell embryos at 48 h (% per 2 cells)” value ([3]; 5 nM, 8 h treatment, Table 1)?
**A.** 91.8%

**Q.** And the “morula/blast at 72 h (% per 2 cells)” value ([3]; 5 nM, 8 h treatment, Table 1)?
**A.** 65.3%

**Q.** And the “two-cell embryos at 24 h (%)” value ([3]; 5 nM, 8 h treatment, Table 1)?
**A.** 76.5%

**Q.** What about the “No. of two-cell embryos at 24 h” value ([3]; 5 nM, 8 h treatment, Table 2) of the same molecule?
**A.** 133

**Q.** And the “two-cell embryos at 24 h (%)” value ([3]; 5 nM, 8 h treatment, Table 2)?
**A.** 86.9%

**Q.** And the “Blastocysts at 96 h (% per two cells)” value [3, 7]?
**A.** 68.2%

**Q.** What about the “Morulae at 96 h (% per two cells)” value [3, 7] of the same molecule?
**A.** 0 (0) %

**Q.** What about the “No. of embryos at 96 h, Blastocysts” value [3, 7] of the same molecule?
**A.** 15

**Q.** And the “No. of embryos at 96 h, Morulae” value [3, 7]?
**A.** 0 (0)

**Q.** What about the “No. of four-cell embryos at 48 h” value [3, 7] of the same molecule?
**A.** 19

**Q.** What about the “No. of two-cell embryos at 24 h” value [3, 7] of the same molecule?
**A.** 22

**Q.** And the “four-cell embryos at 48 h (% per two cells)” value [3, 7]?
**A.** 86.4%

**Q.** And the “two-cell embryos at 24 h (%)” value [3, 7]?
**A.** 100%

**Q.** And the “No. of cloned offspring” value ([4]; 5 nM)?
**A.** 1

**Q.** And the No. of implantations ([4]; 5 nM)?
**A.** 6

**Q.** And the “No. of placentas only” value ([4]; 5 nM)?
**A.** 0 (0)

**Q.** And the “cloned offspring (%)” value ([4]; 5 nM)?
**A.** 6.7%

**Q.** What about the “implantations (%)” value ([4]; 5 nM) of the same molecule?
**A.** 40.0%

**Q.** What about the “placentas only (%)” value ([4]; 5 nM) of the same molecule?
**A.** 0 (0) %

**Q.** What about the “pup rates per embryos transferred” value ([6]; mouse SCNT-derived embryos) of the same molecule?
**A.** more than 5%

**Q.** And the No. of implantations ([5]; 5 nM)?
**A.** 69

**Q.** And the No. of offspring ([5]; 5 nM)?
**A.** 8

**Q.** And the “No. of placentas only” value ([5]; 5 nM)?
**A.** 3

**Q.** And the “implantations (%)” value ([5]; 5 nM)?
**A.** 63.3%

**Q.** And the “offspring (%)” value ([5]; 5 nM)?
**A.** 7.3%

**Q.** What about the “placentas only (%)” value ([5]; 5 nM) of the same molecule?
**A.** 2.8%

**Q.** What about the “pup rates (birth rates of clones), range over both transfer series” value ([5]; morula/blastocyst and two-cell transfer experiments) of the same molecule?
**A.** 6.7–7.3%

**Q.** Which “effect on mouse SCNT” value [6] does the source give for `CCCC(CCC)C(=O)O` [VPA, valproic acid] here?
**A.** no effect
